From patent US20010051654A1, “Treatment of inflammatory and autoimmune diseases” (priority 1997, published 2001)
Where two headings read alike, the source gives them in different places.

Columns and labels:
[1] = test system: actively sensitized Brown Norway rats; experiment: Allergen-induced pulmonary leukocyte accumulation in actively sensitized Brown Norway rats (3b alone); assay type: in vivo
Method: Rats. Male Brown Norway rats were supplied by Harlan Olac Limited (Bicester, Oxon, UK) and delivered within the weight range of 180-200 g. Following acclimatization for at least five days, animals were actively sensitized over a 3-week period and were within the weight range 250-300 g at the time of allergen exposure. Food and water were provided ad libitum.
Sensitization. Ovalbumin (OA; 10 μg) mixed with aluminum hydroxide gel (10 mg) will be injected (0.5 mL, i.p.) into Brown Norway rats and repeated 7 and 14 days later.
Drug Treatment. On day 21, sensitized rats were anaesthetized (halothane 5% in O2) and 3b, dexamethasone, or vehicle (lactose) was instilled via a cannula placed directly into the trachea at 1 hour prior to OA exposure. This procedure was repeated at 24 hours and 48 hours after OA exposure.
Challenge. Following recovery, sensitized animals were restrained in plastic tubes and exposed (60 min) to an aerosol of OA (10 mg/mL) using a nose-only exposure system. Animals were sacrificed 72 hours later with pentobarbital (250 mg/kg i.p.).
Analysis. The lungs were lavaged using 3 aliquots (4 mL) of Hank's solution (HBSS x 10, 100 mL; EDTA 100 mM, 100 mL; HEPES 1M, 10 mL made to […] with water); recovered cells were pooled and the total volume of recovered fluid was adjusted to 12 mL by addition of Hank's solution. Total cells were counted (Sysmex Microcell Counter F-500, TOPA Medical Electronics Ltd., Japan). Smears were made by diluting recovered fluid (to approximately 10^6 cells/mL) and spinning an aliquot (100 μL) in a centrifuge (Cytospin, Shandon, UK). Smears were air dried, fixed using a solution of fast green in methanol (2 mg/L) for 5 seconds and stained with eosin G (5 seconds) and thiazine (5 seconds) (Diff-Quik, Baxter Dade Ltd, Switzerland) in order to differentiate eosinophils, neutrophils, macrophages and lymphocytes. A total of 500 cells per smear were counted by light microscopy under oil immersion (x 1000).

[2] = design: species or system Sprague-Dawley rats; details: rat, in vivo, iv
Method: A single dose intravenous pharmacokinetics study with N-(pyrazine)carbonyl-L-phenylalanine-L-leucine boronic acid (1) was conducted in Sprague-Dawley rats (140 to 280 g). Animals were assigned to 3 groups (6/sex in Groups 1 and 2; 9/sex in Group 3). Animals in groups 1, 2, and 3 received 0.03, 0.1 or 0.3 mg/kg of 1, respectively, in the same dose volume.
Blood samples (approximately 1.0 mL) were collected from the jugular vein of animals pre-dose and at approximately 10 and 30 min and 1, 3 and 24 h post-dose on Day 1.

20 S proteasome [3] = experiment: Ex vivo 20 S proteasome activity in peripheral white blood cells of mice
Method: (§1) This preparation procedure applies to blood samples collected from mammals, particularly rats, mice, dogs, pigs, rabbits, non-human primates, or human subjects. Peripheral white blood cells are separated from blood samples upon collection for storage at about −70° C. until tested. To avoid interference with the assay due to the presence of endogenous proteasome inhibitors, it is important that red blood cells be rigorously excluded.
The blood sample is diluted 1:1 (v/v) with sterile saline, and the blood-saline mixture is layered over NYCOPREP™ separation medium (GIBCO BRL Products) in a 14×75 mm polystyrene test tube at a ratio of approximately 2:1 blood:NYCOPREP™. The sample is centrifuged at 500 x g for approximately 30 minutes at room temperature. The top layer is removed, leaving ˜2-3 mm of the cell band between the top and bottom layers. The remaining cell band is transferred by pipette to a clean centrifuge tube. The cell band is washed with 3 mL of cold phosphate-buffered saline and centrifuged at 400 x g for 5 minutes at 4° C. The supernatant is poured off and the pellet is resuspended in ˜1 mL of cold phosphate-buffered saline. The suspension is transferred to a 1.5 mL Eppendorf microfuge tube and microfuged at 6600 x g for approximately 10 minutes at 4° C. […]
The amount of 20 S proteasome activity in the test sample is calculated according to the following formula: [formula] […]

20 S proteasome [4] = experiment: Ex vivo 20 S proteasome activity in peripheral white blood cells of rats
Method: as §1
The blood sample is diluted 1:1 (v/v) with sterile saline, and the blood-saline mixture is layered over NYCOPREP™ separation medium (GIBCO BRL Products) in a 14×75 mm polystyrene test tube at a ratio of approximately 2:1 blood:NYCOPREP™. The sample is centrifuged at 500 x g for approximately 30 minutes at room temperature. The top layer is removed, leaving ˜2-3 mm of the cell band between the top and bottom layers. The remaining cell band is transferred by pipette to a clean centrifuge tube. The cell band is washed with 3 mL of cold phosphate-buffered saline and centrifuged at 400 x g for 5 minutes at 4° C. The supernatant is poured off and the pellet is resuspended in ˜1 mL of cold phosphate-buffered saline. The suspension is transferred to a 1.5 mL Eppendorf microfuge tube and microfuged at 6600 x g for approximately 10 minutes at 4° C. The supernatant is aspirated off and the cell pellet is stored at −70° C.±10° C.
Measurement of this rate in the absence and in the presence of an inhibitor allows a determination of how enzyme is bound by inhibitor. This assay is used to measure 20 S proteasome activity in peripheral white blood cells in mammals, particularly rats, mice, dogs, pigs, rabbits, non-human primates, or human subjects.
The amount of 20 S proteasome activity in the test sample is calculated according to the following formula: [formula]
Dose formulations of 1 were prepared daily during the course of the study. Dilutions were prepared from a stock solution. The stock solution of 1 was made up in 98% saline (0.9%), 2% ethanol with 0.1% ascorbic acid. Dilutions of the stock were made in the same vehicle.
Drugs were administered in vehicle intravenously (IV) using a dose volume of 100 μL per mouse or 1.0 mL/kg in rats. Control groups were administered with the vehicle (98% saline [0.9%], 2% ethanol, 0.1% ascorbic acid). Animals were dosed with 1 as a single IV bolus given either once or on multiple occasions.
Following IV dosing with 1, blood was withdrawn at various time points and peripheral white blood cells were isolated.
Blood samples were collected at 1.0, 24 and 48 h following administration of 1.
In an additional repeat dose study, male Sprague-Dawley rats (250 to 450 g; n=6 per group) were treated with twice weekly intravenous doses of 1 (0.01 to 0.35 mg/kg/day in a dose volume of 1.0 mL/kg) for two weeks. The vehicle was 0. […] Blood samples were collected 1.0 h after the last dose for evaluation of 20 S proteasome activity.

20 S proteasome [5] = biological target: T1, 20 S proteasome (Rattus norvegicus, UniProt P28075)
T1 sequence (P28075 60-263): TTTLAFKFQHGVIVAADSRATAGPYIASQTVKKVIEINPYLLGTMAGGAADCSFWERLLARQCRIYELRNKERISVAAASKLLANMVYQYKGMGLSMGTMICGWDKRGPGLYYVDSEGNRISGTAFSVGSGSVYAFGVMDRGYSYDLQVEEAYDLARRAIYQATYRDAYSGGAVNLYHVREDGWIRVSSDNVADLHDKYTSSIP
Method: In two studies, female Wistar rats (150 to 200 g) were administered a single intravenous dose of 1 (0.03, 0.1 and 0.3 mg/kg in a dose volume of 1.0 mL/kg). […] Tissue samples were collected from liver and brain at 1.0, 24 and 48 h following administration for evaluation of 20 S proteasome activity.
In a third study, male Sprague-Dawley rats (250 to 450 g) were administered a single intravenous dose of 1 (0.1 and 0.3 mg/kg in a dose volume of 1.0 mL/kg). […] Blood and tissue samples were collected 1.0 h following administration for evaluation of 20 S proteasome activity. The tissues collected were brain, colon, liver, muscle (gastrocnemius), prostate and testes.

20 S proteasome [6] = experiment: Ex vivo 20 S proteasome activity in primate white blood cells; design: species or system Cynomolgus monkeys
Method: (§2) Male and female Cynomolgus monkeys (2.2 to 3.5 kg) were assigned to four groups (5/sex/group). Each group received 0 (vehicle control), 0.045, 0.067 or 0.100 mg/kg/dose of 1 as a single intravenous injection in a dose volume of 0.3 mL/kg twice weekly for 4 weeks (days 1, 5, 8, 12, 15, 19, 22 and 26). […] Three males from the control, low- and mid-dose groups, two high-dose males, and three females/group were sacrificed at the end of treatment on Day 27. Two animals/sex/group were designated as recovery animals and received treatment for 4 weeks followed by 2 weeks of recovery; they were sacrificed on Day 41.
(§3) Blood was collected for 20 S proteasome activity determination prior to treatment, at 1.0 h after dosing on Days 1, 8, 15 and 22, and at 1.0 h prior to dosing on Days 5, 12, 19 and 26; and on Days 31, 34, 38, and 41 (recovery sacrifice animals).

20 S proteasome [7] = experiment: Chymotryptic and tryptic assays in rat white blood cell lysates; assay type: biochemical; details: fit, FIG. 19
Description: Data was fitted as in Example 10, to give kc/kt=17.6±and βt=1.1±0.2 (FIG. 19).

20 S proteasome [8] = experiment: Chymotryptic to tryptic activity ratio assay, human samples; assay type: biochemical
Description: βt=activation factor determined upon titration of the proteasome inhibitor. For the proteasome inhibitor 1, βt=1.28 in human samples.

[9] = Twice weekly intravenous dosing for 4 weeks in Cynomolgus monkeys, clinical condition; assay type: in vivo; details: one high-dose male (0.100 mg/kg/dose), Day 26 after receiving 8 doses
Method: as §2, §3

[10] = test system: 20 S proteasome from rabbit reticulocytes; experiment: Chymotryptic and tryptic activities of purified 20 S proteasome from rabbit reticulocytes
Method: Chymotryptic and tryptic assays were performed as described in Examples 3 and 5 at increasing concentrations of the proteasome inhibitor 1.

[11] = 0.1 and 0.3 mg/kg i.t. 1 h before, 24 h and 48 h after OA, 72 h
[12] = dose dependence, 72 hours after aerosolized ovalbumin
[13] = alternate daily IV for 14 days, 24 h after last dose
[14] = daily IV for 7 days, 24 h after last dose
[15] = once weekly IV for 8 weeks, 24 h after last dose
[16] = 1.0 h after single IV 0.1 and 0.3 mg/kg, male Sprague-Dawley rats

SMILES: CCCC1C(=O)NC2(C(O)C(C)C)OC(=O)C12 (stereo not drawn) [Compound 3b, 7-n-propyl-clasto-lactacystin β-lactone]
- influx of eosinophils in bronchoalveolar lavage fluid [1, 11]: reduced
- influx of total leukocytes in bronchoalveolar lavage fluid [1, 11]: reduced
- lymphocyte count in bronchoalveolar lavage fluid ([1]; all doses i.t., 72 h after OA): significant decrease
- eosinophil count in bronchoalveolar lavage fluid (FIG. 4) [1, 12]: dose dependent inhibition
- leukocyte count in bronchoalveolar lavage fluid (FIG. 3) [1, 12]: dose-dependent reduction

SMILES: CC(C)C[C@H](NC(=O)[C@H](Cc1ccccc1)NC(=O)c1cnccn1)B(O)O [Compound 1, N-(pyrazine)carbonyl-L-phenylalanine-L-leucine boronic acid]
- clearance from the blood [2]: rapidly cleared
- time to peak concentration (Tmax) ([2]; 0.3 mg/kg): ~10 min
- 20 S proteasome activity in white blood cells (20 S proteasome [3]; 1.0 h after single IV 0.1 to 3.0 mg/kg, all dose groups): significant (p<0.05) dose-related decrease
- 20 S proteasome activity in white blood cells (20 S proteasome [3]; 24 h after single IV 0.1 to 3.0 mg/kg): starts to recover
- 20 S proteasome activity in white blood cells (20 S proteasome [4]; 1.0 h after single IV 0.03 to 0.3 mg/kg, female Wistar rats): significant (p<0.05) dose-related decrease
- 20 S proteasome activity in white blood cells (20 S proteasome [4]; 24 h after single IV 0.03 to 0.3 mg/kg, female Wistar rats): smaller, but remained significant (p <0.05) in the higher dose groups
- 20 S proteasome activity in white blood cells (20 S proteasome [4]; 48 h after single IV 0.03 to 0.3 mg/kg, female Wistar rats): no longer significantly decreased
- 20 S proteasome activity in white blood cells (20 S proteasome [4]; [13]): significant dose-related decrease
- dose groups with significant (p<0.05) decrease in 20 S proteasome activity (20 S proteasome [4]; [13]): > 0.2 mg/kg
- 20 S proteasome activity in white blood cells (20 S proteasome [4]; [14]): dose-related decrease
- doses with significant inhibition of 20 S proteasome activity (20 S proteasome [4]; [14]): > 0.05 mg/kg
- 20 S proteasome activity in white blood cells (20 S proteasome [4]; [15]): significant (p<0.05) dose-related decrease
- dose groups with significant (p<0.05) decrease in 20 S proteasome activity (20 S proteasome [4]; [15]): > 0.1 mg/kg
- 20 S proteasome activity in white blood cells (20 S proteasome [4]; twice weekly IV for 2 weeks (4 doses, 0.01 to 0.35 mg/kg/day), 1.0 h after last dose, male Sprague-Dawley rats): dose-related decrease
- dose groups with significant (p<0.05) decrease in 20 S proteasome activity (20 S proteasome [4]; twice weekly IV for 2 weeks, 1.0 h after last dose, male Sprague-Dawley rats): > 0.03 mg/kg
- 20 S proteasome activity in rat liver (20 S proteasome [5]; 1.0 h after single IV 0.03, 0.1, 0.3 mg/kg, female Wistar rats): significant (p<0.05) dose-related decrease
- 20 S proteasome activity in peripheral white blood cells, colon, liver, muscle (gastrocnemius), and prostate (20 S proteasome [5]; [16]): Significant (p<0.05) dose-related decreases
- 20 S proteasome inhibition in brain and testes (20 S proteasome [5]; [16]): No 20 S proteasome inhibition
- 20 S proteasome activity in rat liver (20 S proteasome [5]; 24 h after single IV, high dose group 0.3 mg/kg, female Wistar rats): smaller, but remained significant (p<0.05) in the high dose group
- 20 S proteasome activity in rat liver (20 S proteasome [5]; 48 h after single IV, female Wistar rats): returned to baseline
- penetration into brain tissue (20 S proteasome [5]; inferred from absent 20 S proteasome inhibition, female Wistar rats): lack of penetration
- penetration into brain and testes (20 S proteasome [5]; inferred from absent 20 S proteasome inhibition, male Sprague-Dawley rats): lack of 1 penetration
- 20 S proteasome inhibition in brain tissue (20 S proteasome [5]; single IV 0.03, 0.1, 0.3 mg/kg, female Wistar rats): No 20 S proteasome inhibition
- white blood cell 20 S proteasome activity (20 S proteasome [6]; 1.0 h after dosing, 0.045, 0.067 or 0.100 mg/kg/dose IV twice weekly for 4 weeks): significant and dose-related decrease
- white blood cell 20 S proteasome activity (20 S proteasome [6]; 72 hours after dosing, prior to the subsequent dose): recovered
- white blood cell 20 S proteasome activity of the moribund animal (20 S proteasome [6]; high-dose male at sacrifice on Day 26 after 8 doses): low residual 20 S proteasome activity
- βt (activation factor of tryptic activity) (20 S proteasome [7]): 1.1±0.2
- βt (activation factor determined upon titration of the proteasome inhibitor) (20 S proteasome [8]): 1.28
- clinical condition [9]: sacrificed in moribund condition
- βc (factor for chymotryptic activity of the E•I complex; 0 = total inhibition) [10]: 0
- chymotryptic activity (FIG. 17) ([10]; increasing concentrations of 1): fully inhibits
- tryptic activity (FIG. 17) ([10]; increasing concentrations of 1): activation
- βt (activation factor of tryptic activity) ([10]; purified 20 S proteasome from rabbit reticulocytes, fit, FIG. 18): 1.38±0.05
